Experiments:
[1] = target: Calcium/calmodulin-dependent protein kinase type 1 (Homo sapiens) (UniProt Q14012); assay: Inhibition of human CAMK1A assessed as residual activity at 10 uM using KKALRRQETVDAL as substrate preincubated for 20 mins followed by [gamma-33P]-ATP addition and measured after 120 mins by Hotspot assay relative to control
[2] = target: Cyclin-dependent kinase 4/cyclin D1 (Homo sapiens) (UniProt P11802+P24385); assay: Inhibition of human CDK4/cyclin-D1 assessed as residual activity at 10 uM using RB protein as substrate preincubated for 20 mins followed by [gamma-33P]-ATP addition and measured after 120 mins by Hotspot assay relative to control; assay type: protein-complex assay
[3] = target: CDK6/cyclin D1 (Homo sapiens) (UniProt P24385+Q00534); assay: Inhibition of human CDK6/cyclin-D1 assessed as residual activity at 10 uM using RB protein as substrate preincubated for 20 mins followed by [gamma-33P]-ATP addition and measured after 120 mins by Hotspot assay relative to control; assay type: protein-complex assay
[4] = target: T1, Mast/stem cell growth factor receptor Kit (Homo sapiens, UniProt P10721); assay: Inhibition of human c-KIT assessed as residual activity at 10 uM using poly[Glu:Tyr] (4:1) as substrate preincubated for 20 mins followed by [gamma-33P]-ATP addition and measured after 120 mins by Hotspot assay relative to control
[5] = target: Dual specificity mitogen-activated protein kinase kinase 1 (Homo sapiens) (UniProt Q02750); assay: Inhibition of human MEK1 assessed as residual activity at 10 uM using ERK2 as substrate preincubated for 20 mins followed by [gamma-33P]-ATP addition and measured after 120 mins by Hotspot assay relative to control
[6] = target: T2, Tyrosine-protein kinase ABL1 (Homo sapiens, UniProt P00519, F317I); assay: Binding affinity to human non-phosphorylated ABL1 F317I mutant (S229 to K512 residues) expressed in mammalian expression system after 60 mins by Kinomescan method
[7] = target: T2, Tyrosine-protein kinase ABL1; assay: Binding affinity to human phosphorylated ABL1 F317I mutant (S229 to K512 residues) expressed in mammalian expression system after 60 mins by Kinomescan method
[8] = target: Tyrosine-protein kinase ABL1 (Homo sapiens, UniProt P00519, H396P); assay: Binding affinity to human phosphorylated ABL1 H396P mutant (S229 to K512 residues) expressed in mammalian expression system after 60 mins by Kinomescan method
[9] = target: T3, Tyrosine-protein kinase ABL1 (Homo sapiens, UniProt P00519, Q252H); assay: Binding affinity to human non-phosphorylated ABL1 Q252H mutant (S229 to K512 residues) expressed in mammalian expression system after 60 mins by Kinomescan method
[10] = target: T3, Tyrosine-protein kinase ABL1; assay: Binding affinity to human phosphorylated ABL1 Q252H mutant expressed in mammalian expression system after 60 mins by Kinomescan method
[11] = target: Tyrosine-protein kinase ABL1 (Homo sapiens, UniProt P00519); assay: Binding affinity to wild-type human phosphorylated ABL1 (S229 to K512 residues) expressed in mammalian expression system after 60 mins by Kinomescan method
[12] = target: T1, Mast/stem cell growth factor receptor Kit; assay: Binding affinity to wild-type human partial length KIT (I571 to D952 residues) expressed in bacterial expression system after 60 mins by Kinomescan method
[13] = target: T1, Mast/stem cell growth factor receptor Kit; assay: Binding affinity to wild-type human partial length autoinhibited KIT (Y545 to D952 residues) expressed in mammalian expression system after 60 mins by Kinomescan method
CDK6/cyclin D1 = CDK6/cyclin D1 (Homo sapiens, UniProt Q00534); assay: Inhibition of human CDK6/cyclin-D1 using RB protein as substrate preincubated for 20 mins followed by [gamma-33P]-ATP addition and measured after 120 mins by Hotspot assay; assay type: protein-complex assay
[14] = target: Discoidin domain-containing receptor 2 (Homo sapiens, UniProt Q16832); assay: Inhibition of human DDR2 using KKSRGDYMTMQIG as substrate preincubated for 20 mins followed by [gamma-33P]-ATP addition and measured after 120 mins by Hotspot assay
[15] = target: Platelet-derived growth factor receptor alpha (Homo sapiens, UniProt P16234); assay: Inhibition of human PDGFRalpha using poly[Glu:Tyr] (4:1) as substrate preincubated for 20 mins followed by [gamma-33P]-ATP addition and measured after 120 mins by Hotspot assay
[16] = target: Vascular endothelial growth factor receptor 2 (Homo sapiens, UniProt P35968); assay: Inhibition of human KDR using poly[Glu:Tyr] (4:1) as substrate preincubated for 20 mins followed by [gamma-33P]-ATP addition and measured after 120 mins by Hotspot assay
RS4-11 = assay: Growth inhibition of human RS4:11 cells harboring WT FLT3 at 10 uM after 72 hrs by CellTiter-Glo assay relative to control; assay type: functional; settings: RS4-11, 72 h, read-out: GI
MV4-11 [17] = assay: Cytotoxicity against human MV4-11 cells at 1 uM after 72 hrs by MTT assay; assay type: cell-based; settings: mv4-11, 72 h
MV4-11 [18] = assay: Induction of apoptosis in human MV4-11 cells assessed as early apoptotic cells at 0.02 uM after 24 hrs by Annexin V-FITC/propidium iodide staining based flow cytometric analysis (reference value: 3.39%); assay type: functional
MV4-11 [19] = assay: Induction of apoptosis in human MV4-11 cells assessed as late apoptotic cells at 0.02 uM after 24 hrs by Annexin V-FITC/propidium iodide staining based flow cytometric analysis (reference value: 1.42%); assay type: functional
MV4-11 [20] = assay: Induction of apoptosis in human MV4-11 cells assessed as necrotic cells at 0.02 uM after 24 hrs by Annexin V-FITC/propidium iodide staining based flow cytometric analysis (reference value: 0%); assay type: functional
MV4-11 [21] = assay: Induction of apoptosis in human MV4-11 cells assessed as early apoptotic cells at 0.1 uM after 24 hrs by Annexin V-FITC/propidium iodide staining based flow cytometric analysis (reference value: 3.39%); assay type: functional
MV4-11 [22] = assay: Induction of apoptosis in human MV4-11 cells assessed as early apoptotic cells at 0.2 uM after 24 hrs by Annexin V-FITC/propidium iodide staining based flow cytometric analysis (reference value: 3.39%); assay type: functional
MV4-11 [23] = assay: Induction of apoptosis in human MV4-11 cells assessed as necrotic cells at 0.2 uM after 24 hrs by Annexin V-FITC/propidium iodide staining based flow cytometric analysis (reference value: 0%); assay type: functional
MV4-11 [24] = assay: Induction of apoptosis in human MV4-11 cells assessed as late apoptotic cells at 0.5 uM after 24 hrs by Annexin V-FITC/propidium iodide staining based flow cytometric analysis (reference value: 1.42%); assay type: functional
MV4-11 [25] = assay: Induction of apoptosis in human MV4-11 cells assessed as necrotic cells at 0.5 uM after 24 hrs by Annexin V-FITC/propidium iodide staining based flow cytometric analysis (reference value: 0%); assay type: functional
MV4-11 [26] = assay: Induction of apoptosis in human MV4-11 cells assessed as viable cells at 0.5 uM after 24 hrs by Annexin V-FITC/propidium iodide staining based flow cytometric analysis (reference value: 95.19%); assay type: functional; settings: MV4-11, 24 h, read-out: Activity
MV4-11 [27] = assay: Induction of apoptosis in human MV4-11 cells assessed as late apoptotic cells at 1 uM after 24 hrs by Annexin V-FITC/propidium iodide staining based flow cytometric analysis (reference value: 1.42%); assay type: functional

T1 sequence (P10721 whole entry): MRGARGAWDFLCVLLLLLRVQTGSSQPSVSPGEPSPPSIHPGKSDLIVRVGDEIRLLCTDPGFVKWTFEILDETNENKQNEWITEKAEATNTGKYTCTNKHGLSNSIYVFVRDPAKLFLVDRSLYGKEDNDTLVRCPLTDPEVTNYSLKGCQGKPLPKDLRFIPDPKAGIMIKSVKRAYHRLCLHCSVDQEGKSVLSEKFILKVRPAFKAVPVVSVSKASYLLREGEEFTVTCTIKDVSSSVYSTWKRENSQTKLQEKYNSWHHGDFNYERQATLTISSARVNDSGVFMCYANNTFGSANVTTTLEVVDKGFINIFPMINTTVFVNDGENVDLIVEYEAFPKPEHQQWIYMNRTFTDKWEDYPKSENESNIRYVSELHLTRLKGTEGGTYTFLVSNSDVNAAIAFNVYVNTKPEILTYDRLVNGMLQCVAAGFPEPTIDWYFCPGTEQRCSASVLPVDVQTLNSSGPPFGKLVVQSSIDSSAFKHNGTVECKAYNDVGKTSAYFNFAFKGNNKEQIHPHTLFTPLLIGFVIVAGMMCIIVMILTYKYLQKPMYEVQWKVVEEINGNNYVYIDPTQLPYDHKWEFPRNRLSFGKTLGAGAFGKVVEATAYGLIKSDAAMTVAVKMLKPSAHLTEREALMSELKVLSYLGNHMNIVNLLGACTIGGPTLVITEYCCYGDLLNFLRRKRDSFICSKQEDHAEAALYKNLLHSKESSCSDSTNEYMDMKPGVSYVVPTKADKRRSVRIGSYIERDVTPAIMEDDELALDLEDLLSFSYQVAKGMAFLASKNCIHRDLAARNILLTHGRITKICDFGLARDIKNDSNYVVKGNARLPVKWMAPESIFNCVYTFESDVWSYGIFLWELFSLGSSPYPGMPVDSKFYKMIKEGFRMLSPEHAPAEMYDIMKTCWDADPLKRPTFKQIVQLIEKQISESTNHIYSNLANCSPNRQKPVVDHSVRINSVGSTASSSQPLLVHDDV
CDK6/cyclin D1, sequence (P24385 whole entry, the tested form may be a part): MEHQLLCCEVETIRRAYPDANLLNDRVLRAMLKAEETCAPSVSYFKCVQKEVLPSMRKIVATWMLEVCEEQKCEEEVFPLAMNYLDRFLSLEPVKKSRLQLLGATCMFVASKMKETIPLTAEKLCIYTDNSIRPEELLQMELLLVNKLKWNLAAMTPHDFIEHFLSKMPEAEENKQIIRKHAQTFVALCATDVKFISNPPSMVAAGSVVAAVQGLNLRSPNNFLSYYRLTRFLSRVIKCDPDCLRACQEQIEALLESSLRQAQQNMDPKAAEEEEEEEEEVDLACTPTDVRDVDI
CDK6/cyclin D1, sequence (Q00534 whole entry, the tested form may be a part): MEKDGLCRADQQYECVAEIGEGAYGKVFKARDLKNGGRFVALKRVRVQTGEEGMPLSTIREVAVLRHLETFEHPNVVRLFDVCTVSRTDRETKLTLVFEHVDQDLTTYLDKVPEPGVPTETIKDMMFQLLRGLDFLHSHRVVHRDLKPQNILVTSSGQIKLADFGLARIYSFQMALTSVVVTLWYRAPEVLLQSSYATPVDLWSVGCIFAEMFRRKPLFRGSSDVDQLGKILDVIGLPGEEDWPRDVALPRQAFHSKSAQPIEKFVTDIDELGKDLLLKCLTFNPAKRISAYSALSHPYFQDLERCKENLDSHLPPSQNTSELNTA
Calcium/calmodulin-dependent protein kinase type 1 (Homo sapiens), sequence (Q14012 whole entry, looked up): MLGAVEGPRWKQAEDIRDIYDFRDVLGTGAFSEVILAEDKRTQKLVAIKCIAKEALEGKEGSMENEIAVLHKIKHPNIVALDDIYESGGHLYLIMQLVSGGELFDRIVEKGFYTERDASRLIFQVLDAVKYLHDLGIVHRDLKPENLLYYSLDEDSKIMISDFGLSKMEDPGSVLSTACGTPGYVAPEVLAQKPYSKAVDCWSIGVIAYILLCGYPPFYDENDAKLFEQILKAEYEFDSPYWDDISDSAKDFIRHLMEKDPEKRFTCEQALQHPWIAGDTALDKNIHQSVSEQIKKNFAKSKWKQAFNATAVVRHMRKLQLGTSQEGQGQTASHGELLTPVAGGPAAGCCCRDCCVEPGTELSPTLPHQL
Discoidin domain-containing receptor 2, sequence (Q16832 whole entry, the tested form may be a part): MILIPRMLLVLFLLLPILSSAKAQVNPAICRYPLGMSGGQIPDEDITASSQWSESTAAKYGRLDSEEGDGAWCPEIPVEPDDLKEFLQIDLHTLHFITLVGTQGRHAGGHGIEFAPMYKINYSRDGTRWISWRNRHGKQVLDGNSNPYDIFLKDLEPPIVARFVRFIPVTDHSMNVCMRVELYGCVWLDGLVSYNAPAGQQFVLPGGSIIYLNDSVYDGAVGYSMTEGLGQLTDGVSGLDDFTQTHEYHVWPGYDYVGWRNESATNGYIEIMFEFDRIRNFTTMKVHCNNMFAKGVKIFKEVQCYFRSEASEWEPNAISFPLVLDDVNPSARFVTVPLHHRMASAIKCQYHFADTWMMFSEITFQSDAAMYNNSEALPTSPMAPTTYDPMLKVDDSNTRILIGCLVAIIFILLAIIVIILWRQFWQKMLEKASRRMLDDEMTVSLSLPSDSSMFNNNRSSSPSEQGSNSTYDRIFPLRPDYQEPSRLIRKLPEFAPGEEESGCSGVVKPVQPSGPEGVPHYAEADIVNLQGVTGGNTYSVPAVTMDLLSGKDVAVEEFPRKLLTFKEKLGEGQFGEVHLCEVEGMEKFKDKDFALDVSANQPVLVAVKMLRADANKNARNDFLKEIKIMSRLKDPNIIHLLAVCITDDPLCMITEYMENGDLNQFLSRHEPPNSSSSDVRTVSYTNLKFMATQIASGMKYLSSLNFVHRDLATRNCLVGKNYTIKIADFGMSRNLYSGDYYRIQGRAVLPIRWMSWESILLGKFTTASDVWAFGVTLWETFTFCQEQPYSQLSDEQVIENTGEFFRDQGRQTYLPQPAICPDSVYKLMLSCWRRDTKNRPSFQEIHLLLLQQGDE
Platelet-derived growth factor receptor alpha, sequence (P16234 whole entry): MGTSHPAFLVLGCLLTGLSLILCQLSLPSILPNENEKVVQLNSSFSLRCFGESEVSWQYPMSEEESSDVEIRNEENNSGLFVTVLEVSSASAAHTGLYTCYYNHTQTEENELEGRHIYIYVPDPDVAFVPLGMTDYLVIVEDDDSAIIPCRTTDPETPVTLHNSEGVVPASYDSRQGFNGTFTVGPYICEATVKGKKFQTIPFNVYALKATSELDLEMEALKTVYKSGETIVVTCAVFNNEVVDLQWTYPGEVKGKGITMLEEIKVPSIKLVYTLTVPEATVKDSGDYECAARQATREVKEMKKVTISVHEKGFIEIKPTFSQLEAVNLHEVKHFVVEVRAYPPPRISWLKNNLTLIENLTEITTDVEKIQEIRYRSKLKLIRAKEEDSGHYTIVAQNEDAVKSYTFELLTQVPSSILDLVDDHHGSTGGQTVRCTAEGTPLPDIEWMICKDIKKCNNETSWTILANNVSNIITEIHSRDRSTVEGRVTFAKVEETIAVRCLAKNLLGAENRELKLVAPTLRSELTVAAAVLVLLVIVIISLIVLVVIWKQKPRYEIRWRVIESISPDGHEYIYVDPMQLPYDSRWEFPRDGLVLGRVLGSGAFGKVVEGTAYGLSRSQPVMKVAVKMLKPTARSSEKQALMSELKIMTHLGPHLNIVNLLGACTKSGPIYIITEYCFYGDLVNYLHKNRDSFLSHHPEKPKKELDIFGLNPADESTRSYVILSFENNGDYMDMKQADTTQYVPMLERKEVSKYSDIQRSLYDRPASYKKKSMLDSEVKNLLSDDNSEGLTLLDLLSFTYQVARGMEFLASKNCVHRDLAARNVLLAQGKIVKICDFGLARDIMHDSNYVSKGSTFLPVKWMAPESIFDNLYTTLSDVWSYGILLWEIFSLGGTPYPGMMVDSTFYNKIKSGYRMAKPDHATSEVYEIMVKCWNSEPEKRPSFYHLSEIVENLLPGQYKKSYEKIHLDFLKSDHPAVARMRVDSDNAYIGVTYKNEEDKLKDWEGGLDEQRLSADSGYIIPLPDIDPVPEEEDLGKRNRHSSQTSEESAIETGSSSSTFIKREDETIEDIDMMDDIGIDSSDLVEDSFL
Dual specificity mitogen-activated protein kinase kinase 1 (Homo sapiens), sequence (Q02750 whole entry, the tested form may be a part): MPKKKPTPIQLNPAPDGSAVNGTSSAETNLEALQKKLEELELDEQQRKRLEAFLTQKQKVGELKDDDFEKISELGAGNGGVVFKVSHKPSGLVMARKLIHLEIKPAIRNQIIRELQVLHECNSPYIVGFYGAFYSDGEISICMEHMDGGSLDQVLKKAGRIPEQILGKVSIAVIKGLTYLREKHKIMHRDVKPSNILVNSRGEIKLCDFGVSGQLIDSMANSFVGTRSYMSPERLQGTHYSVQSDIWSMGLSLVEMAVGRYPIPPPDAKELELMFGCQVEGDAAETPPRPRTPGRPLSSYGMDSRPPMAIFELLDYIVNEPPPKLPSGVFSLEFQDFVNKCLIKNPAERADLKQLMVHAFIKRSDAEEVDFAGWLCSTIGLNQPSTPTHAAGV

Q: For CN1CCC(Nc2ccc(C(=O)Nc3cc(-c4cc(C#N)cs4)n[nH]3)cc2)CC1, which Activity [1] is on record?
A: The Activity was 48.5%.

Q: What about the Activity [2] of the same compound?
A: The Activity was 49.2%.

Q: And the Activity [3]?
A: Its Activity is 20.1%.

Q: And the Activity [4]?
A: The Activity was 14.4%.

Q: What about the Activity [5] of the same compound?
A: The Activity was 91.9%.

Q: And the Kd [6]?
A: The Kd was over 10000 nM.

Q: And the Kd [7]?
A: The Kd was over 10000 nM.

Q: And the Kd [8]?
A: Its Kd is 390 nM.

Q: What about the Kd [9] of the same compound?
A: The Kd was 350 nM.

Q: What about the Kd [10] of the same compound?
A: Its Kd is 300 nM.

Q: And the Kd [11]?
A: Its Kd is 520 nM.

Q: And the Kd [12]?
A: The Kd was 2.2 nM.

Q: And the Kd [13]?
A: Its Kd is 72 nM.

Q: What about the IC50 (CDK6/cyclin D1) of the same compound?
A: Its IC50 is 3060 nM.

Q: What about the IC50 [14] of the same compound?
A: Its IC50 is 3470 nM.

Q: What about the IC50 [15] of the same compound?
A: Its IC50 is 3640 nM.

Q: What about the IC50 [16] of the same compound?
A: Its IC50 is 6260 nM.

Q: What about the inhibition of growth at 10 µM (RS4-11) of the same compound?
A: Its inhibition of growth at 10 µM is 1.33%.

Q: What about the Activity (MV4-11 [17]) of the same compound?
A: The Activity was “Non-Toxic”.

Q: What about the Activity (MV4-11 [18]) of the same compound?
A: Its Activity is 17.09%.

Q: And the Activity (MV4-11 [19])?
A: The Activity was 11.3%.

Q: What about the Activity (MV4-11 [20]) of the same compound?
A: Its Activity is 3.01%.

Q: What about the Activity (MV4-11 [21]) of the same compound?
A: The Activity was 24.27%.

Q: What about the Activity (MV4-11 [22]) of the same compound?
A: The Activity was 25.33%.

Q: And the Activity (MV4-11 [23])?
A: Its Activity is 4.1%.

Q: What about the Activity (MV4-11 [24]) of the same compound?
A: Its Activity is 26.68%.

Q: And the Activity (MV4-11 [25])?
A: The Activity was 4.89%.

Q: What about the viability at 0.5 µM (MV4-11 [26]) of the same compound?
A: Its viability at 0.5 µM is 39.8%.

Q: And the Activity (MV4-11 [27])?
A: The Activity was 27.75%.

— ChEMBL document CHEMBL4330071 (Eur J Med Chem, 2019)
